# Measured values reported in patent publication US20040023362A1, “Degradation of polycyclic aromatic hydrocarbons by microorganisms” (priority 2000, published 2004).
# Entries after “also recorded” stand apart in the source; their conditions may differ.
# Key:
# [1] = Surfactant critical micelle concentration, duNouy ring tensitometer; assay type: physicochemical; conditions: for CMC in BSM compared with deionized (distilled) water: 30° C.; for CMC: in BSM
# Experimental: Experiments to evaluate surfactant CMC values were conducted at 30° C. using a duNouy ring tensitometer (Cambridge Instrument Company Limited, London, England). All glassware was cleaned with chromic acid solution, and the tensitometer ring was cleaned with acetone and heated to redness in a gas flame. Various concentrations of surfactant solutions were prepared in deionized water and BSM. Surfactant solutions were allowed to equilibrate for approximately 2 h before measurements were made. Measurements were an average of five readings (SD<0.3%). CMC value was taken from the plot of surface tension versus log surfactant concentration, as described by Kile and Chiou (1989).
# [2] = data from the manufacturers; cited from earlier work
# [3] = system: S. maltophilia VUN 10,010; assay: Pyrene degradation and growth of VUN 10,010 in the presence of surfactants; assay type: cell-based, Stenotrophomonas maltophilia; conditions: for effect on growth of VUN 10,010 on pyrene (protein analysis, MPN): surfactant 5-10 g l^−1; for effect on pyrene degradation by VUN 10,010: surfactant 5-10 g l^−1 (up to 10 g l^−1)
# Experimental: Each surfactant was added to the medium to achieve the following concentrations: 0.5 g l^−1 (▴), 5.0 g l^−1 (●) and 10.0 g l^−1 (▪). The control cultures ( ) contained no added surfactant. The incubations were performed in BSM at 30° C., using low initial cell populations.
# Growth was monitored by measuring protein concentration and viable cell numbers at regular intervals up to 10 days. Viable cell numbers were determined by most probable number (MPN) estimates (Collin et al, 1989).
# Three types of controls were used: cultures containing no surfactant, uninoculated broth, and killed cell cultures (0.2% HgCl2). All cultures were incubated at 30° C./175 rpm. Bacterial growth was determined by MPN estimates.
# strain VUN 10,010 = assay: Agar (well) diffusion toxicity test of surfactants; assay type: cell-based, Stenotrophomonas maltophilia; conditions: concentrations of 5 and 10 g l^−1
# Experimental: The agar diffusion method was used to determine the effects of surfactants on growth by observing zones of inhibition on peptone-glucose agar (Cserhali et al, 1991). The medium contained per litre: 5 g peptone, 5 g glucose, 0.5 g NaCl, 3 g beef extract, 20 g agar; the pH was adjusted to 7.0 and sterilized by autoclaving for 15 min at 121° C. Bacterial cultures were mixed with the molten medium (25 ml) to obtain an inoculum size of approximately 10^8 cells ml^−1, and this was poured into a Petri dish. Once the cell-medium mixture had solidified, 7 mm diameter holes were made, and 150 μl of aqueous surfactant solutions was added (0.1-10.0 g l^−1). Growth inhibition zones were observed after 48-72 h at 30° C.
# physchem = assay: physchem
# Experimental: PAHs (approximately 1 g l^−1) were added to a 10 ml solution of BSM plus surfactant in a 30 ml glass reaction vial, which was sealed with an aluminium cap fitted with a septum. Surfactant concentrations corresponded to levels above, below, and at the CMC, and replicates were set up to allow sampling in duplicate at different time intervals up to 72 h. Incubation was performed at 30° C. and 175 rpm. The entire vial contents was collected by syringe and expressed through a preconditioned membrane filter (0.22 μm, Sartorius AG, Germany) to remove solid-phase crystalline PAH while allowing solubilized PAH in the aqueous phase and micellar pseudophase to pass into sterile vials. The filter was preconditioned by purging the filter with a few mls of sample solution to allow sorption saturation of the internal surfaces of the syringe, filter and needle. The filtrates were extracted with dichloromethane (DCM), and the concentration of solubilized PAH was determined by GC-FID as described below.
# The effectiveness of a particular surfactant in solubilizing a given PAH can be assessed by determining the molar solubilization ratio (MSR) and micelle/water partition coefficient (Km). In our study, the concentrations of added PAHs were well in excess of aqueous saturation concentrations; therefore the MSR value of each compound can be obtained from the slope of the curve generated from a plot of PAH concentration versus surfactant concentration for surfactant concentrations above CMC (Edwards et al, 1991).
# Km values can be determined from the measured MSR values according to the following equation (Edwards et al, 1991): [formula]
# ^SPAH, CMC is the apparent solubility of the PAH (mol l^−1) at surfactant CMC. VW is the molar volume of water at 30° C. ie. 0.018015 l mol^−1(Rogers and Mayhew, 1981).
# [4] = Ghosh et al (1995); medium and temperature not specified; cited from earlier work
Substance,CMC in BSM compared with deionized (distilled) water [1],CMC [1] [mM],HLB (hydrophile-lipophile balance number) [2],"effect on growth of VUN 10,010 on pyrene (protein analysis, MPN) [3]","effect on pyrene degradation by VUN 10,010 [3]","effect on microbial growth (strain VUN 10,010)","MSR (molar solubilization ratio), PYR (physchem)","log Km (micelle-phase/aqueous-phase partition coefficient), PYR (physchem)","reduction of time required for VUN 10,010 to degrade 250 mg l^−1 of pyrene ([3]; surfactant 5-10 g l^−1, presolubilized pyrene) [%]",MSR for benzo[a]pyrene [4],"MSR (molar solubilization ratio), BAP (physchem)","MSR (molar solubilization ratio), FA (physchem)","log Km (micelle-phase/aqueous-phase partition coefficient), BAP (physchem)","log Km (micelle-phase/aqueous-phase partition coefficient), FA (physchem)"
Igepal CA-630,higher CMC values in BSM,0.1078,13.0,inhibited,inhibited pyrene degradation; also recorded: inhibitory to pyrene degradation,some inhibition,0.0326,5.39,–,–,–,–,–,–
Tyloxapol,higher CMC values in distilled water,0.0167,12.9,significantly improved,enhanced,–,0.0820,6.60,50,–,–,–,–,–
Triton X-100,higher CMC values in distilled water,0.2320,13.5,–,enhanced,–,0.0352,5.84,–,1.5×10^−2,0.0113,0.0508,7.49,5.64
